Test system: SW 1271 complex spheroids, viability
Assay: Anticancer human tumor SW 1271 cell line growth inhibition [LSD1];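 note: spheroids exposed to agents for 7 days before luminescence read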;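 for viability, T/C: 100% = DMSO vehicle control viability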
Conditions: for IC50: curve of first compound; for viability, T/C: stronger effect = lower value
Procedure, shortened: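 Multicellular complex spheroids of tumor cells with human endothelial cells (HUVEC) and mesenchymal stem cells; the LSD1 inhibitor iadademstat was combined with standard-of-care or investigational agents. Top concentration at or near clinical Cmax, half-log dilutions; final DMSO ≤0.25%.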

[1] = second compound 0.1 µM, first compound 0.00316 µM
[2] = second compound 0.1 µM, first compound 0.01 µM
[3] = second compound 0.1 µM, first compound 0.0316 µM
[4] = second compound 0.1 µM, first compound 0.1 µM
[5] = second compound 0.1 µM, first compound 0.316 µM
[6] = second compound 0.1 µM, first compound 1 µM
[7] = second compound 0.316 µM, first compound 0.00316 µM
[8] = second compound 0.316 µM, first compound 0.01 µM
[9] = second compound 0.316 µM, first compound 0.0316 µM
[10] = second compound 0.316 µM, first compound 0.1 µM
[11] = second compound 0.316 µM, first compound 0.316 µM
[12] = second compound 0.316 µM, first compound 1 µM
[13] = second compound 1 µM, first compound 0.00316 µM
[14] = second compound 1 µM, first compound 0.01 µM
[15] = second compound 1 µM, first compound 0.0316 µM
[16] = second compound 1 µM, first compound 0.1 µM
[17] = second compound 1 µM, first compound 0.316 µM
[18] = second compound 1 µM, first compound 1 µM
[19] = second compound 3.16 µM, first compound 0.00316 µM
[20] = second compound 3.16 µM, first compound 0.01 µM
[21] = second compound 3.16 µM, first compound 0.0316 µM
[22] = second compound 3.16 µM, first compound 0.1 µM
[23] = second compound 3.16 µM, first compound 0.316 µM
[24] = second compound 3.16 µM, first compound 1 µM
[25] = second compound 10 µM, first compound 0.00316 µM
[26] = second compound 10 µM, first compound 0.01 µM
[27] = second compound 10 µM, first compound 0.0316 µM
[28] = second compound 10 µM, first compound 0.1 µM
[29] = second compound 10 µM, first compound 0.316 µM
[30] = second compound 10 µM, first compound 1 µM

Structure (SMILES) | IC50 (second compound 0.1 µM) [µM] | IC50 (second compound 0.316 µM) [µM] | IC50 (second compound 1 µM) [µM] | IC50 (second compound 3.16 µM) [µM] | IC50 (second compound 10 µM) [µM] | viability, T/C [3] [%] | viability, T/C [4] [%] | viability, T/C [5] [%] | viability, T/C [6] [%] | viability, T/C [9] [%] | viability, T/C [10] [%] | viability, T/C [11] [%] | viability, T/C [12] [%] | viability, T/C [15] [%] | viability, T/C [16] [%] | viability, T/C [17] [%] | viability, T/C [18] [%] | viability, T/C [21] [%] | viability, T/C [22] [%] | viability, T/C [23] [%] | also measured
CC1COCCN1c1cc(-c2ccnn2C)c2ccnc(-c3ccn[nH]3)c2n1 (stereo not given) + NC1CCC(NC2CC2c2ccccc2)CC1 | 0.0595 | 0.103 | 0.0553 | 0.0554 | 0.0473 | 56.3 | 42.7 | 42.2 | 29.8 | 58.2 | 42.7 | 48.8 | 28.6 | 56.2 | 39.6 | 44.3 | 30.3 | 55.8 | 44.8 | 42 | viability, T/C [1]: 59.3%; viability, T/C [2]: 76.7%; viability, T/C [7]: 71.4%; viability, T/C [8]: 71.2%; viability, T/C [13]: 68.5%; viability, T/C [14]: 62%; viability, T/C [19]: 68.4%; viability, T/C [20]: 56.4%; viability, T/C [24]: 31.4%; viability, T/C [25]: 78.1%; viability, T/C [26]: 66.9%; viability, T/C [27]: 53.1%; viability, T/C [28]: 41.8%; viability, T/C [29]: 38.5%; viability, T/C [30]: 29.9%
COc1ccc([C@@H](O)c2cc(-c3ncnc4cc(N5CCOCC5)ccc34)c(F)cc2Cl)nn1 + NC1CCC(NC2CC2c2ccccc2)CC1 | 0.811 | 0.542 | 0.608 | 0.836 | 0.436 | 92 | 84.7 | 62.1 | 49.4 | 82.1 | 70.6 | 58.2 | 40.8 | 75 | 65.3 | 65.2 | 38.7 | 68 | 65.2 | 66.2 | viability, T/C (second compound 0.1 µM, first compound 3.16 µM): 29.2%; viability, T/C (second compound 0.1 µM, first compound 10 µM): 21%; viability, T/C (second compound 0.316 µM, first compound 3.16 µM): 30.3%; viability, T/C (second compound 0.316 µM, first compound 10 µM): 21.4%; viability, T/C (second compound 1 µM, first compound 3.16 µM): 27.5%; viability, T/C (second compound 1 µM, first compound 10 µM): 21.6%; viability, T/C [24]: 46.3%; viability, T/C (second compound 3.16 µM, first compound 3.16 µM): 25.5%; viability, T/C (second compound 3.16 µM, first compound 10 µM): 16.7%; viability, T/C [27]: 89.4%; viability, T/C [28]: 60%; viability, T/C [29]: 50.4%; viability, T/C [30]: 49%; viability, T/C (second compound 10 µM, first compound 3.16 µM): 26.6%; viability, T/C (second compound 10 µM, first compound 10 µM): 14.9%
O=C(C=Cn1cnc(-c2cc(C(F)(F)F)cc(C(F)(F)F)c2)n1)NNc1cnccn1 + NC1CCC(NC2CC2c2ccccc2)CC1 | 0.135 | 0.189 | 0.229 | 0.215 | 0.203 | 72.9 | 50.2 | 42.8 | 24.6 | 81.3 | 53.5 | 46 | 27.4 | 88.9 | 62.4 | 47 | 18.5 | 92.1 | 54.3 | 48.3 | viability, T/C [1]: 86.6%; viability, T/C [2]: 91.2%; viability, T/C [7]: 84.5%; viability, T/C [8]: 77.3%; viability, T/C [13]: 90.5%; viability, T/C [14]: 101%; viability, T/C [19]: 81.9%; viability, T/C [20]: 79.3%; viability, T/C [24]: 23.7%; viability, T/C [25]: 87.5%; viability, T/C [26]: 86.6%; viability, T/C [27]: 79.1%; viability, T/C [28]: 59%; viability, T/C [29]: 44.8%; viability, T/C [30]: 29.5%

— PubChem BioAssay AID1918941 (Molecular Pharmacology Branch, DTP, NCI, 2023)
